Assay results: ChEMBL document CHEMBL1132512, “Substituted heterocyclic analogs as selective COX-2 inhibitors in the flosulide class” (Bioorg Med Chem Lett, 1999)
pIC50: −log10 of the molar value.

Key:
[1] = target: T1, Prostaglandin G/H synthase 1 (Homo sapiens, UniProt P23219); experiment: Inhibition of Prostaglandin G/H synthase 1 activity in U937 microsomal assay; format: microsomes, Microsome
[2] = target: T2, Prostaglandin G/H synthase 2 (Homo sapiens, UniProt P35354); experiment: Inhibition of purified recombinant human Prostaglandin G/H synthase 2
T2 sequence (P35354 whole entry): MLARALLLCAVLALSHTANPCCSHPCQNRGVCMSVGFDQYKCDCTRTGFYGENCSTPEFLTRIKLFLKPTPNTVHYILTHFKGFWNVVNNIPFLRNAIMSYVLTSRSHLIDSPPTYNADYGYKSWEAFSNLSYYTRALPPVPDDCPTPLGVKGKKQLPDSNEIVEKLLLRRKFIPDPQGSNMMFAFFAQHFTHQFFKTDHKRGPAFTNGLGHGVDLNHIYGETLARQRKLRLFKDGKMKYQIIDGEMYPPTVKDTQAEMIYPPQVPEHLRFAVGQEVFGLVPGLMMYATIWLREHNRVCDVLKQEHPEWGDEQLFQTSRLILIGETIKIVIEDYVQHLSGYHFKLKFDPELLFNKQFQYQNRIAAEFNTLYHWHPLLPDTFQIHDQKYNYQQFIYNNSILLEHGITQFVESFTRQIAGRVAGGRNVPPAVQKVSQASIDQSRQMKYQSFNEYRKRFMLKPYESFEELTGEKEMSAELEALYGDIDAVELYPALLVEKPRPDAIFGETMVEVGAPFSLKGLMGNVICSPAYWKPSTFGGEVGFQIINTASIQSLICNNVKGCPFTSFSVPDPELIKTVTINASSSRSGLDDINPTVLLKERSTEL

[3] = target: T2, Prostaglandin G/H synthase 2; experiment: Inhibition of human Prostaglandin G/H synthase 2 expressed in CHO (chinese hamster ovary) cells; format: cell-based
[4] = target: T1, Prostaglandin G/H synthase 1; experiment: Inhibition of purified recombinant human Prostaglandin G/H synthase 1
Rattus norvegicus [5] = experiment: In vivo antiinflammatory activity expressed as percent inhibition after administration of 3 mg/kg was evaluated in rat paw edema assay; format: functional
Rattus norvegicus [6] = experiment: In vivo antiinflammatory activity expressed as 50% effective dose was evaluated in rat paw edema assay; format: functional
Rattus norvegicus [7] = experiment: In vivo antiinflammatory activity expressed as 30% effective dose was evaluated in rat paw edema assay; format: functional
Rattus norvegicus [8] = experiment: In vivo antiinflammatory activity expressed as 50% effective dose was evaluated at 5 hr post dosing in rat pyresis model; format: functional

T1 sequence (P23219 whole entry): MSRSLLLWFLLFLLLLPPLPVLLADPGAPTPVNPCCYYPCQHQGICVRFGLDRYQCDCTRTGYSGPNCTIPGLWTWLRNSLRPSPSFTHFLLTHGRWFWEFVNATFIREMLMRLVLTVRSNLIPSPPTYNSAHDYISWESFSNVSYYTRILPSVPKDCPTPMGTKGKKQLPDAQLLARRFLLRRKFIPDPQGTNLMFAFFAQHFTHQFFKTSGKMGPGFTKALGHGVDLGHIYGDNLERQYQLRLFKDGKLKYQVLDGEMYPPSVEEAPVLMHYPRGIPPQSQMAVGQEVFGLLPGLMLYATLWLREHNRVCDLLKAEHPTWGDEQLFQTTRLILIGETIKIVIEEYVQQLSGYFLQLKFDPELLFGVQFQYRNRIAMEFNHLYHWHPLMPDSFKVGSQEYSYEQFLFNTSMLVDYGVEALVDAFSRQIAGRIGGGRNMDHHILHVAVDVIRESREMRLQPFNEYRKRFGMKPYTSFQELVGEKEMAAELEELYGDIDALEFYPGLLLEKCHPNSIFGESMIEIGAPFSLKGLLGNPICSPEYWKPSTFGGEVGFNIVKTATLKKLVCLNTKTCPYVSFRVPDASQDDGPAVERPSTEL

SMILES	pIC50 [1]	pIC50 [2]	pIC50 [3]	pIC50 [4]	inhibition in vivo at 3 mg/kg (Rattus norvegicus [5])	ED50 (Rattus norvegicus [6])	ED30 (Rattus norvegicus [7])	ED50 (Rattus norvegicus [8])
CCc1csc(Sc2cc3c(cc2NS(C)(=O)=O)COC3=O)n1	5.20	6.00	7.89	< 4.00	65%	0.93 mg/kg	0.16 mg/kg	2.7 mg/kg
Cc1ccc(Sc2cc3c(cc2NS(C)(=O)=O)CCC3=O)nc1	< 4.00	6.00	6.19	< 4.00				
Cc1csc(Sc2cc3c(cc2NS(C)(=O)=O)COC3=O)n1	6.46	5.16	7.37	< 4.00				
CSc1csc(Sc2cc3c(cc2NS(C)(=O)=O)COC3=O)n1	5.03	6.54	4.96	< 4.00				
CS(=O)(=O)Nc1cc2c(cc1Sc1nccs1)C(=O)OC2	5.89	6.21	7.57	< 4.00				
Cc1nc(Sc2cc3c(cc2NS(C)(=O)=O)CCC3=O)sc1C	< 4.00	5.77	< 5.74	< 4.00				
CCc1csc(Sc2cc3c(cc2NS(C)(=O)=O)CCC3=O)n1	4.85	6.55	7.31	~4.00	43%		0.3 mg/kg	8.1 mg/kg
CS(=O)(=O)Nc1cc2c(cc1Sc1ccccn1)C(=O)CC2	< 4.52	6.09	6.30	< 4.00				
CS(=O)(=O)Nc1cc2c(cc1Sc1ncc(Cl)cc1Cl)C(=O)CC2	5.31	6.44	6.92	< 4.00			0.7 mg/kg	
CS(=O)(=O)Nc1cc2c(cc1Sc1nccs1)C(=O)CC2	4.89	6.32	6.49	< 4.00				

The next lines start with results.

pIC50 [1]	pIC50 [2]	pIC50 [3]	pIC50 [4]	SMILES	inhibition in vivo at 3 mg/kg (Rattus norvegicus [5])	ED50 (Rattus norvegicus [6])	ED30 (Rattus norvegicus [7])	ED50 (Rattus norvegicus [8])
4.92	6.51	6.85	< 4.00	C=Cc1csc(Sc2cc3c(cc2NS(C)(=O)=O)COC3=O)n1				
6.21	6.42	7.52	< 4.00	Cc1csc(Sc2cc3c(cc2NS(C)(=O)=O)CCC3=O)n1				
5.21	6.28	6.66	< 4.00	CS(=O)(=O)Nc1cc2c(cc1Sc1ncccc1Cl)C(=O)CC2				
5.80			< 4.00	CS(=O)(=O)Nc1cc2c(cc1Sc1ccc(F)cc1F)C(=O)CC2				
< 4.00	5.82	6.06	< 4.00	Cc1cnc(Sc2cc3c(cc2NS(C)(=O)=O)CCC3=O)s1				
